Measurements published in patent publication US7192981B2, “3,4-dihydroxyhydrocinnamic acid derivative” (Bionutrigen Co., Ltd., priority 2005, dated 2007).

Test system: isolated rat epididymal adipocytes
Test: Glucose transport assay (2-DOG uptake)
Type: cell-based
Details: for glucose transport at higher doses: rat adipocytes, 4 h

Compound	glucose transport at higher doses	glucose transport (insulin at the indicated concentrations, 30 min)
COc1ccc(Cl)cc1C(=O)NCCc1ccc(S(=O)(=O)NC(=O)NC2CCCCC2)cc1 [glyburide, reference compound]	decreased	
CN(C)C(=N)N=C(N)N [metformin, reference compound]	remained unchanged	
insulin		increased glucose transport in a dose-dependent manner
